From US10251852B2, “Composition and methods for treatment of lung disorders characterized by cholesterol dysregulation” (priority 2016, dated 2019)

Assays:
Csf2rb−/− mice [1] = assay: In vivo LXR stimulation study (oral T0901317 in PAP mice); design: species or system mouse; conditions: oral gavage 10 mg/kg/day, 7 days
Description: Bronchoalveolar lavage and alveolar macrophage collection in mice.
RNA isolation and gene expression analysis.
In vivo LXR Stimulation Studies. Mice were administered T0901317 by oral gavage once daily for 7 days at a dose of 10 mg/kg/BW/Day using propylene glycol and tween 80 as a vehicle. On the 7th day alveolar macrophages were collected by bronchoalveolar lavage. Following brief adherence to tissue culture plastic to remove BAL debris, alveolar macrophages were then used for RNA isolation and gene expression analysis by qRT-PCR as described above

[2] = test system: alveolar macrophages from PAP patients; assay: Ex vivo human PPARγ & LXR stimulation, mRNA by qRT-PCR; assay type: cell-based
Description: Bronchoalveolar lavage and alveolar macrophage collection in human participants. This study was conducted with the approval of the Cincinnati Children's Hospital Medical Center institutional review board and all participants or their legal guardians gave written informed consent. Human BAL fluid and alveolar macrophages were obtained from BAL using flexible bronchoscopy or from discarded material of PAP patients undergoing therapeutic whole lung lavage. After the fluid was centrifuged at 283 g for 10 minutes, the cellular pellet was re-suspended in the culture medium. Human alveolar macrophages were isolated by adherence to tissue culture plastic. Extracellular debris was removed by gentle washing with PBS.
(§1) RNA isolation and gene expression analysis. Total RNA was isolated using Trizol (Life Technologies) and was converted to cDNA using the Invitrogen Superscript III first strand synthesis kit (Life Technologies) according to the manufacturer's protocol. Standard quantitative RT-PCR (qRT-PCR) was performed as previously described 10 on an Applied Biosystems 7300 Real-Time PCR System (Life Technologies) to measure transcript abundance using TaqMan® oligonucleotide primer sets (all from Life Technologies). Expression of target genes was normalized to the expression of 18s RNA.
Ex vivo human PPARγ & LXR stimulation studies. After purifying alveolar macrophages, fresh media was added to the adherent alveolar macrophages containing human M-CSF (R&D) (25ng/ml) only or M-CSF plus Pioglitazone (Sigma) (10 μM) or T0901317 (Tocris) (1 μM) for 24 hrs. qRT-PCR was performed as described above.

[3] = test system: BMD macrophages from PAP mice (Csf2−/−); assay: In vitro mouse PPARγ & LXR stimulation, gene expression by qRT-PCR; assay type: cell-based; conditions: T0901317 1 μm
Description: Tissue macrophage differentiation and culture. All cells were maintained in the culture medium of Dulbecco's modified eagle's medium (DMEM) (Life Technologies) plus 10% FBS, 50 U ml-1 penicillin, and 50 μg ml-1 streptomycin. Bone marrow cells were obtained from 6-8-week-old mice by flushing the tibias and femurs with the culture media described above.
Mononuclear cells were isolated by centrifugation over a Ficoll-Paque (GE Healthcare Life Sciences) gradient at room temperature for 30 minutes. The buffy coat was washed in PBS and the cellular pellet re-suspended in the culture medium with M-CSF (R&D Systems) (5 ng/ml) plus or minus GM-CSF (R&D Systems) as dictated per experimental requirements. Cells were cultured in a 10 cm dish overnight at 37° C. and the next day non-adherent cells were recovered and transferred to a new dish and cultured under the same conditions for an additional 24 hrs. At this stage non-adherent cells were discarded and adherent cells cultured for an additional five days to allow differentiation of bone marrow derived (BMD) macrophages. Peritoneal macrophages were isolated from the peritoneal without chemical solicitation by washing with 8 ml of PBS plus 0.5 mM EDTA. WT peritoneal macrophages were cultured in vitro in culture medium with M-CSF (5 ng/ml) and GM-CSF […], and Csf2^−/− peritoneal macrophages were cultured in culture medium with M-CSF alone. […]

[4] = test system: BMD macrophages from PAP mice (Csf2−/−); assay: In vitro surfactant challenge assay after PPARγ/LXR stimulation (esterified cholesterol accumulation); assay type: cell-based, mouse
Description: (§2) In vitro surfactant challenge assay. BMD macrophages or peritoneal macrophages were seeded at 4×10^5 cells per well of a 12 well tissue culture plate and allowed to adhere with fresh media and cytokines overnight. Cells were then challenged for 24 hrs with pulmonary surfactant isolated from a hereditary PAP patient (PAP-S). After the challenge cells were gently washed with PBS to remove exogenous PAP-S and cellular lipids were then extracted and analyzed by the amplex red cholesterol assay.
In vitro mouse PPARγ & LXR stimulation Studies. BMD macrophages were prepared as previously described in the presence of M-CSF (10 ng/ml). On the 7th day macrophages were stimulated for 24 hrs with M-CSF (10 ng/ml), GM-CSF (10 ng/ml), Pioglitazone (10 μm) or T0901317 (1 μm from Tocris). Macrophages were then used for an in vitro surfactant challenge assay or gene expression analysis by qRT-PCR as described above.

Csf2−/− BMD macrophages = assay: GM-CSF plasticity studies (withdrawal, multi-day stimulation, dose response) with PAP-S challenge; assay type: cell-based, mouse; conditions: for reduction in exposure-related cholesterol ester accumulation: addition of GM-CSF (10 ng/ml) to macrophages cultured without it; for increase in exposure-related cholesterol ester accumulation: withdrawal of GM-CSF
Description: as §2
GM-CSF withdrawal. Csf2^−/− BMD macrophages were differentiated and maintained in media containing M-CSF and GM-CSF. After 7 days of differentiation cells were split into 12well tissue culture plates and allowed to adhere overnight in GM-CSF containing media. The following day the media was changed to M-CSF only and cells were challenged with PAP-S for 24hrs immediately or 24, 48, and 72 hours after GM-CSF withdrawal. Cellular lipids were extracted, normalized to total protein, and analyzed. Csf2^−/− BMD macrophages were used to ensure elimination of any potential autologous GM-CSF expression-related stimulation.
Multi-Day GM-CSF stimulation. Csf2^−/− BMD macrophages were generated in media containing M-CSF. On the 7th day cells were stimulated for 0, 24, 48, or 72 hrs with 10 ng/ml of GM-CSF before 24 hr surfactant challenge with PAP-S. Cellular lipids were extracted, normalized to total protein, and analyzed.
GM-CSF dose response. Csf2^−/− BMD macrophages were generated in media containing M-CSF. On the 7th day cells were stimulated by a dose response of GM-CSF (0, 0.1,1,10, and 100 ng/ml) for 24 hrs before surfactant challenge with PAP-S. Cellular lipids were extracted, normalized to total protein, and analyzed.

[5] = test system: patients with insulin resistance; conditions: literature ref. 53; cited from earlier work
Csf2rb−/− mice [6] = assay: In vivo PPARγ stimulation study (oral pioglitazone in PAP mice)
Excerpt: Bronchoalveolar lavage and alveolar macrophage collection in mice. GM-CSF (CSF2) knockout (Csf2^−/−) mice5 and Csf2rb gene-deficient (Csf2rb^−/−)14 were reported previously (referred to mouse PAP). C57B1/6 mice (referred to as wild type or WT mice) were purchased from Charles River. All mice were bred, housed, and studied in the Cincinnati Children's Research Foundation Vivarium using protocols approved by the Institutional Animal Care and Use Committee. Epithelial lining fluid and non-adherent cells were collected from indicated mice by bronchoalveolar lavage (BAL) using five lml aliquots of PBS plus 0.5 mM EDTA4. The 1 ml aliquots were pooled and the recovered volumes recorded. The supernatant was removed and the cellular pellets were re-suspended in the culture media for isolation of alveolar macrophages by adherence to tissue culture plastic.
Cholesterol levels. Total and free cholesterol levels were measured by the amplex red cholesterol assay (Life Technologies) per the manufacturer's protocol. Esterified cholesterol was then calculated by subtracting free cholesterol from the total value.
Turbidity. The turbidity of the fluid was measured as previously described^4,55 Briefly, 250 uls of the BAL were diluted into 750 uls of PBS and the optical density measured at a wavelength of 600 nm and multiplied by the dilution factor.
as §1
In vivo PPARγ stimulation studies. Pioglitazone was incorporated into standard rodent chow at a dose expected to deliver 20 mg/kg BW/Day. BAL turbidity and alveolar macrophage gene expressions were measured as described above. GM-CSF levels and total cholesterol levels in the BAL were measured in the supernatant of fluid after centrifuge at 283 g for 10 minutes at 4° C. by enzyme-linked immunosorbent assay (ELISA) (R&D systems) and Amplex Red Cholesterol assay respectively as described above.

[7] = pioglitazone 10 μM, 24 hrs, compared to untreated controls (FIG. 5A-5B)
[8] = oral in food, 20 mg/kg/day, six weeks, vs untreated age-matched controls (FIG. 5F-5G)

O=S(=O)(c1ccccc1)N(CC(F)(F)F)c1ccc(C(O)(C(F)(F)F)C(F)(F)F)cc1 [T0901317, N-(2,2,2-trifluoroethyl)-N-[4-[2,2,2-trifluoro-1-hydroxy-1-(trifluoromethyl)ethyl]phenyl]-benzenesulfonamide]
Abca1 mRNA in alveolar macrophages (Csf2rb−/− mice [1]; vs untreated age-matched controls (FIG. 8F)): significantly increased
Abcg1 mRNA in alveolar macrophages (Csf2rb−/− mice [1]; vs untreated age-matched controls (FIG. 8G)): significantly increased
ABCG1 mRNA ([2]; T0901317 1 μM, 24 hrs (FIG. 8A)): increase
ABCA1 mRNA ([2]; T0901317 1 μM, 24 hrs (FIG. 8B)): increase
Abcg1 mRNA level ([3]; 24 hrs (FIG. 8C)): increased
Abca1 mRNA level ([3]; 24 hrs (FIG. 8D)): increased
cholesterol ester accumulation following exposure to PAP-surfactant ([4]; T0901317 1 μm 24 hrs, then PAP-S 24 hrs (FIG. 8E)): reduced

GM-CSF: granulocyte/macrophage-colony stimulating factor (R&D Systems)
cholesterol clearance capacity of macrophages (Csf2−/− BMD macrophages; GM-CSF 0, 0.1, 1, 10, 100 ng/ml for 24 hrs before PAP-S challenge (FIG. 3N)): increased the cholesterol clearance capacity of macrophages in dose-dependent fashion
reduction in exposure-related cholesterol ester accumulation (Csf2−/− BMD macrophages; by 24 hours (FIG. 3M)): 27%
reduction in exposure-related cholesterol ester accumulation (Csf2−/− BMD macrophages; by 72 hours (FIG. 3M)): 49%
increase in exposure-related cholesterol ester accumulation (Csf2−/− BMD macrophages; by 24 hours (FIG. 3L)): 86%
increase in exposure-related cholesterol ester accumulation (Csf2−/− BMD macrophages; by 72 hours (FIG. 3L)): 309%

CCc1ccc(CCOc2ccc(CC3SC(=O)NC3=O)cc2)nc1 (stereo not shown) [pioglitazone, Pioglitazone]
ABCA1 mRNA [2, 7]: did not alter
ABCG1 mRNA [2, 7]: markedly increased
risk of stroke or myocardial infarction [5]: reduce the risk
cholesterol ester accumulation following exposure to PAP-surfactant ([4]; pioglitazone 10 μm 24 hrs, then PAP-S 24 hrs (FIG. 5E)): reduced
Abca1 mRNA in alveolar macrophages (Csf2rb−/− mice [6]; [8]): significantly increased
Abcg1 mRNA in alveolar macrophages (Csf2rb−/− mice [6]; [8]): significantly increased
BAL turbidity (Csf2rb−/− mice [6]; oral in food, 20 mg/kg/day, six weeks, vs untreated age-matched controls (FIG. 5H)): significantly reduced
BAL cholesterol level (Csf2rb−/− mice [6]; oral in food, 20 mg/kg/day, six weeks, vs untreated age-matched controls (FIG. 5I)): significantly reduced
adverse effects (Csf2rb−/− mice [6]; oral pioglitazone in Csf2rb−/− mice (not shown)): no apparent adverse effects
severity of PAP lung disease (Csf2rb−/− mice [6]; pioglitazone therapy of GM-CSF deficient mice (summary statement)): reduced the severity
